# System: human subject
# Test: Post-exercise recovery (whole-body oxygen consumption)
# Assay type: in vivo
# Method: The administration of cinnamaldehyde promotes post-exercise recovery by reducing the time for a subject's oxygen consumption level (VO2) to return to his or her pre-exercise level when cinnamaldehyde is administered after exercise. In these implementations, cinnamaldehyde is administered with a protein and/or a carbohydrate. The protein may be any protein commonly used in nutritional supplement manufacture, which includes but is not limited to whey protein, milk protein, casein protein, beef protein, soy protein, hemp protein, rice protein, canola protein, spirulina, and pea protein. The carbohydrate may by any commonly used form of simple or complex carbohydrates used in the manufacture of dietary supplements, which includes but is not limited glucose, fructose, dextrose, palatinose, maltodextrin, various starches, activated barley, waxy maize, cereals, and oats. In a preferred embodiment, cinnamaldehyde is administered to the human subject within two hours of completion of exercise, for example within 90 minutes, 60 minutes, or 30 minutes of completion of exercise.
# The effect of cinnamaldehyde on promoting post-exercise exercise is best when cinnamaldehyde is administered within an hour after exercise and its effect is reduced when administered two hours after exercise. The effect of cinnamaldehyde on promoting post-exercise exercise is enhanced when it is administered with a protein and/or a carbohydrate (for example, a combination of whey powder and glucose).
smiles,measurement,setting,value
O=CC=Cc1ccccc1 [cinnamaldehyde],time for whole-body oxygen consumption to return to pre-exercise levels,administered after the human subject completed an exercise session,reduced the time
same,effect on promoting post-exercise recovery,administered two hours after exercise,reduced
same,effect on promoting post-exercise recovery,administered with a protein and/or a carbohydrate (e.g. whey powder and glucose),enhanced
same,effect on promoting post-exercise recovery,administered within an hour after exercise,best

# Source: patent US20180125795A1, “[…] COMPOSITIONS AND METHODS” (ThermoLife International, LLC, priority 2017, published 2018)
